The assay relates to DSS-induced colitis. Kind of assay: Rat model of DSS-induced colitis. In kind it is in vivo, SD rats. The note with it: H&E-stained colon sections, oral gavage days 1, 3, 5, sacrifice day 7.

The text below walks through data of US20210283064A1, “STABLE, BIOADHESIVE, AND DIFFUSION-RESTRICTIVE COACERVATE” (The Chinese University of Hong Kong, priority 2020, published 2021).

Description: SD rats weighing around 250 g were given 4.5% DSS in drinking water for 7 days to develop acute colitis. Clinical manifestations of the colitis, such as severe rectal bleeding, watery diarrhea, and colonic edema were observed after 7 days. […] Untreated colitic SD rats were used as the negative control. All SD rats were allowed unrestricted access to water and standard laboratory diet before and after oral gavage and sacrificed on day 7 for further evaluation of colon weight and length, histological severity, IBD-associated colonic myeloperoxidase (MPO)-activity, mRNA levels of tight junction-associated proteins (ZO-1 and occludin-1) and pro-inflammatory cytokines, such as interleukin IL-1β and tumor necrosis factor (TNF) in the distal colon.

In turn, “dexamethasone sodium phosphate [Dex-P/PBS]” returned a mean histopathology score of 1.917.
